Type in all cases: cell-based
The test system of one assay is B16-F0 cells. The experiment in a line: MTT cytotoxicity assay, B16-F0. The settings on record: Mus musculus, B16F0; Table 1, agent alone; read-out: IC50. An excerpt: (§1) We studied the growth-inhibitory effects of 2HF on the B16-F0 and B16-F10 murine melanoma cell lines as well as on the SK-MEL-24 human melanoma cell line. B16-F10 and SK-MEL-24 have been shown in previous studies to be highly resistant to treatment and much more invasive than B16-F0 [32]. […] The absorption value measured upon reduction of the MTT dye by functional mitochondria is an indirect measure of cell number that cannot distinguish inhibited cell proliferation from apoptotic or necrotic cell death. By counting viable (trypan-blue dye-excluding) cells using a hemacytometer, we verified that 2HF did indeed cause cell death.
(§2) Figure 1 Mouse and human melanoma cell survival following 2′-hydroxyflavanone (2HF) treatment.
(§3) The IC50 of 2HF on B16-F0, B16-F10, and SK-MEL-24 cells was determined by MTT cytotoxicity assay. Cells were harvested and Trypan Blue dye exclusion test was used to determine the number of viable cells present in a cell suspension using a hemocytometer. The cell suspension was diluted to 5 × 10^4 cells/mL with Dulbecco’s Modified Eagle’s Medium (DMEM) complete medium and 5000 cells/well were plated in 96-well plates. After 24 h incubation at 37 °C, cells were treated with 2HF concentrations ranging from 0–200 µM (8 replicates per plate). After 48 or 72 h incubation, 40 µL of MTT (5 mg/mL) solution was added. After 4 h incubation, the plate was centrifuged at 700× g for 5 min and medium was aspirated completely. Then, 50 µL DMSO was added to each well to dissolve the purple precipitate on the rocking platform for about 15 min. The absorbance was then measured at 490 nm using a 96-well microplate reader (Spectramax Plus, Molecular Devices, Inc, San Jose, CA, USA).
(In general: Tetrazolium assays rely on reduction of a dye to a coloured formazan, in cell work by metabolically active cells.)

For another assay, the system named is B16-F10 cells. The experiment in a line: MTT cytotoxicity assay, B16-F10. The settings on record: Mus musculus, Table 1, agent alone, read-out: IC50.
Excerpt: as §1, §2, §3

The test system of the next assay is SK-MEL-24 cells. The experiment in a line: MTT cytotoxicity assay, SK-MEL-24. The settings on record: Homo sapiens, Table 1, agent alone, read-out: IC50.
Excerpt: as §1, §2, §3

In general, IC50 refers to the point on the concentration scale where inhibition reaches its midpoint.

With `COC1CCN(C(=O)c2cc(Cc3n[nH]c(=O)c4ccccc34)ccc2F)CC1` [PARP1i, AZD 2461, reference compound], the IC50 is 16.5 ± 4.86 µM in the assay on B16-F0 cells, 29.9 ± 28.5 µM in the assay with B16-F10 cells and 55 ± 23.9 µM with SK-MEL-24 cells.
